Assay results: patent US11214803B2, “Modulators of YAP1 expression” (Ionis Pharmaceuticals, Inc., priority 2019, dated 2022)
“And” between values parts separate entries of the source, which are not always exact repeats. Identical values can stand only once. Strand notation (5' to 3'): a small letter for the sugar, then the base; units joined by * are phosphorothioate-linked, units joined directly phosphodiester-linked; [ ] holds rarer units or linkages, { } end groups; capitals alone tell only the bases. e = 2'-O-(2-methoxyethyl) (MOE); k = constrained ethyl (cEt); [5mC] = 5-methylcytosine; d = 2'-deoxy (DNA)

How the values were obtained:
Yap1 mRNA [1] = experiment: Dose-dependent inhibition of human Yap1 in SNU-449 cells (Example 9, RTS36584); format: cell-based; conditions: free uptake; for % UTC (Yap1 mRNA): approximately 48 hours
How it was run: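 Read-out was Yap1 mRNA (primer-probe RTS36584) normalised to total RNA by RIBOGREEN, given as % of untreated cells, with IC50 fitted by linear regression of log/linear data. Oligonucleotides were dosed by free uptake to SNU-449 cells, 10,000/well, for ~48 h.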

Yap1 mRNA [2] = experiment: Inhibition of human Yap1 mRNA in SNU449 hepatocellular carcinoma xenograft tumors (Example 26); format: in vivo; conditions: SNU449 xenografts in NSG mice, 50 mg/kg twice weekly for five days, relative to PBS treated animals
Method: A SNU449 hepatocellular carcinoma xenograft tumor model was used to evaluate activity of modified oligonucleotides targeted to human Yap1. Ten million SNU449 cells in 30% matrigel were implanted subcutaneously into the flanks of female NOD Cg-Prkdcscid ll2rgtm1Wjl/SzJ (NSG) mice (from Jackson Laboratory) at 4-6 weeks of age. When tumors reached an average volume of 100 mm^3, approximately two weeks post-implantation, groups of four mice each were administered at 50 mg/kg twice weekly with modified oligonucleotides for five days. Tumors were collected and tested for Yap1 mRNA knockdown by RT-qPCR. Yap1 mRNA levels were measured as previously described using the Human Yap1 primer-probe set RTS4814. Yap1 mRNA levels were normalized to actin-beta content, as measured by primer probe set RTS5002. Results are presented in the tables below as percent control of the amount of Yap1 mRNA relative to PBS treated animals (% control).

Yap1 mRNA [3] = experiment: Dose-dependent inhibition of human Yap1 in A-431 cells (Example 6, 5,000 cells per well, RTS4814); format: cell-based; conditions: A-431 cells; for IC50: Yap1 mRNA, linear regression on a log/linear plot; for % UTC 148 nM / % UTC 444 nM / % UTC 1333 nM / % UTC 4000 nM: free uptake, approximately 48 hours, RTS4814
How it was run: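 A-431 cells (5,000/well) took up oligonucleotides by free uptake at various doses for about 48 h. Yap1 mRNA was measured by RT-PCR (RTS4814), normalised to RIBOGREEN total RNA and expressed as % untreated control; IC50 by linear regression on a log/linear plot.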

Yap1 mRNA [4] = experiment: Dose-dependent inhibition of human Yap1 in A-431 cells (Example 7, 10,000 cells per well, RTS36584); format: cell-based; conditions: free uptake
How it was run: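 Yap1 mRNA was expressed as percent of untreated control after normalization to total RNA (RIBOGREEN), and IC50 was derived by log/linear linear regression. The read-out used primer-probe set RTS36584 roughly 48 hours after free-uptake dosing of oligonucleotides into A-431 cells (10,000 cells/well).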

[5] = Tolerability in Balb/c mice, plasma chemistry markers (Example 11); format: in vivo; conditions: 50 mg/kg subcutaneously twice a week for four weeks
Method: Balb/c mice were treated with modified oligonucleotides selected from studies described above and evaluated for changes in the levels of various plasma chemistry markers.
(§1) Groups of male Balb/c mice at 4-6 weeks of age (obtained from Taconic) were injected subcutaneously twice a week for four weeks (for a total of 8 treatments) with 50 mg/kg of modified oligonucleotides. One group of male Balb/c mice was injected with PBS. Mice were euthanized on day 26 post start of treatment (24 hours following the final administration).

[6] = Tolerability in Balb/c mice, body and organ weights (Example 11); format: in vivo; conditions: 50 mg/kg subcutaneously twice a week for four weeks, end of study
Method: as §1
Body weights of Balb/c mice were measured at the end of the study, and the average body weight for each group is presented in the table below. Modified oligonucleotides that caused any changes in organ weights outside the expected range for modified oligonucleotides were excluded from further studies.

[7] = Tolerability in CD-1 mice, plasma chemistry markers (Example 15); format: in vivo; conditions: male CD-1 mice, 50 mg/kg s.c. twice a week for four weeks (8 treatments), day 26
Method: CD-1 mice were treated with modified oligonucleotides selected from studies described above and evaluated for changes in the levels of various plasma chemistry markers.
(§2) Groups of four male CD-1 mice at 4-5 weeks of age (obtained from Charles River) were injected subcutaneously twice a week for four weeks (for a total of 8 treatments) with 50 mg/kg of modified oligonucleotides. One group of male CD-1 mice was injected with PBS. Mice were euthanized on day 26 post start of treatment (24 hrs following the final administration).

[8] = Tolerability in CD-1 mice, body and organ weights (Example 15); format: in vivo; conditions: male CD-1 mice, 50 mg/kg s.c. twice a week for four weeks (8 treatments), end of study (day 26)
Method: as §2
Body weights of CD-1 mice were measured at the end of the study, and the average body weight for each group is presented in the table below. Modified oligonucleotides that caused any changes in organ weights outside the expected range for modified oligonucleotides were excluded from further studies.

[9] = 15.6 nM, A-431 cells, 10,000 cells per well, approximately 48 hours
[10] = 62.5 nM, A-431 cells, 10,000 cells per well, approximately 48 hours
[11] = 4000.00 nM, A-431 cells, 10,000 cells per well, approximately 48 hours

With “1198501 (kG*kA*dT*dT*dT*dA*dG*dG*dA*dT*dG*e[5mC]*kA*eT*kG*eG; antisense) [compound 1198501]” the “% UTC (Yap1 mRNA)” value (Yap1 mRNA [1]; 31.3 nM) was 65 % UTC, the “% UTC (Yap1 mRNA)” value (Yap1 mRNA [1]; 125.0 nM) was 36 % UTC and the “% UTC (Yap1 mRNA)” value (Yap1 mRNA [1]; 500.0 nM) was 17 % UTC. The “% UTC (Yap1 mRNA)” value (Yap1 mRNA [1]; 2000.00 nM) was 11 % UTC, the IC50 (Yap1 mRNA [1]; linear regression on a log/linear plot) was 100 nM and the “Yap1 mRNA in tumors, % control” value (Yap1 mRNA [2]) was 54 % control.
With “716454 (antisense k[5mC]*kG*kA*dG*dA*dT*dT*dT*dA*dA*dA*dT*dA*kA*kG*kG) [compound 716454]” the IC50 (Yap1 mRNA [3]; Table 54) was 2600 nM, the “% UTC 148 nM” value (Yap1 mRNA [3]; Table 54) was 91 % UTC and the “% UTC 444 nM” value (Yap1 mRNA [3]; Table 54) was 71 % UTC. The “% UTC 1333 nM” value (Yap1 mRNA [3]; Table 54) was 54 % UTC, the “% UTC 4000 nM” value (Yap1 mRNA [3]; Table 54) was 48 % UTC and the “Yap1 mRNA, % UTC” value (Yap1 mRNA [4]; [9]) was 84 % UTC. For the same substance, the “Yap1 mRNA, % UTC” value (Yap1 mRNA [4]; [10]) was 39 % UTC, the “Yap1 mRNA, % UTC” value (Yap1 mRNA [4]; [11]) was 6 % UTC and the IC50 (Yap1 mRNA [4]; A-431 cells, approximately 48 hours, linear regression on log/linear plot) was 100 nM. The ALT [5] was 39 U/L, the AST [5] was 60 U/L and the BUN [5] was 14 mg/dL. For the same substance, the TBIL [5] was 0.18 mg/dL, the Kidney weight [6] was 0.42 g and the Liver weight [6] was 1.48 g. It also gave a Spleen weight [6] of 0.14 g, a body weight [6] of 25 g and an ALB [7] of 2.3 g/dL. For the same substance, the ALT [7] was 44 U/L, the AST [7] was 56 U/L and the Kidney weight [8] was 0.55 g. The Liver weight [8] was 2.31 g, the Spleen weight [8] was 0.20 g and the body weight [8] was 38 g.
For “715483 (k[5mC]*kT*k[5mC]*dT*dT*dT*dG*dG*dA*dA*dA*d[5mC]*d[5mC]*kA*kT*kT) [compound 715483]”, the IC50 (Yap1 mRNA [3]; Table 53) was 1100 nM, the “% UTC 148 nM” value (Yap1 mRNA [3]; Table 53) was 82 % UTC and the “% UTC 444 nM” value (Yap1 mRNA [3]; Table 53) was 58 % UTC. The “% UTC 1333 nM” value (Yap1 mRNA [3]; Table 53) was 43 % UTC, the “% UTC 4000 nM” value (Yap1 mRNA [3]; Table 53) was 35 % UTC and the “Yap1 mRNA, % UTC” value (Yap1 mRNA [4]; [9]) was 88 % UTC and 87 % UTC and 77 % UTC. The “Yap1 mRNA, % UTC” value (Yap1 mRNA [4]; [10]) was 40 % UTC and 45 % UTC and 36 % UTC, the “Yap1 mRNA, % UTC” value (Yap1 mRNA [4]; [11]) was 4 % UTC and 3 % UTC and the “Yap1 mRNA, % UTC” value (Yap1 mRNA [4]; Table 56, 15.6 nM, A-431 cells 10,000 cells per well, 48 hours) was 78 % UTC. The “Yap1 mRNA, % UTC” value (Yap1 mRNA [4]; Table 56, 62.5 nM, A-431 cells 10,000 cells per well, 48 hours) was 38 % UTC, the “Yap1 mRNA, % UTC” value (Yap1 mRNA [4]; Table 56, 4000.00 nM, A-431 cells 10,000 cells per well, 48 hours) was 6 % UTC and the IC50 (Yap1 mRNA [4]; Table 56, A-431 cells 10,000 cells per well) was 50 nM. For the same substance, the “Yap1 mRNA, % UTC” value (Yap1 mRNA [4]; Table 57, 15.6 nM, A-431 cells 10,000 cells per well, 48 hours) was 79 % UTC, the “Yap1 mRNA, % UTC” value (Yap1 mRNA [4]; Table 57, 62.5 nM, A-431 cells 10,000 cells per well, 48 hours) was 45 % UTC and the “Yap1 mRNA, % UTC” value (Yap1 mRNA [4]; Table 57, 4000.00 nM, A-431 cells 10,000 cells per well, 48 hours) was 4 % UTC. The IC50 (Yap1 mRNA [4]; Table 57, A-431 cells 10,000 cells per well) was 100 nM, the “Yap1 mRNA, % UTC” value (Yap1 mRNA [4]; Table 58, 15.6 nM, A-431 cells 10,000 cells per well, 48 hours) was 84 % UTC and the “Yap1 mRNA, % UTC” value (Yap1 mRNA [4]; Table 58, 62.5 nM, A-431 cells 10,000 cells per well, 48 hours) was 44 % UTC. The “Yap1 mRNA, % UTC” value (Yap1 mRNA [4]; Table 58, 4000.00 nM, A-431 cells 10,000 cells per well, 48 hours) was 5 % UTC, the IC50 (Yap1 mRNA [4]; Table 58, A-431 cells 10,000 cells per well) was 100 nM and the “Yap1 mRNA, % UTC” value (Yap1 mRNA [4]; Table 59, 15.6 nM, A-431 cells 10,000 cells per well, 48 hours) was 83 % UTC. For the same substance, the “Yap1 mRNA, % UTC” value (Yap1 mRNA [4]; Table 59, 62.5 nM, A-431 cells 10,000 cells per well, 48 hours) was 44 % UTC, the “Yap1 mRNA, % UTC” value (Yap1 mRNA [4]; Table 59, 4000.00 nM, A-431 cells 10,000 cells per well, 48 hours) was 4 % UTC and the IC50 (Yap1 mRNA [4]; Table 59, A-431 cells 10,000 cells per well) was 100 nM. The “Yap1 mRNA, % UTC” value (Yap1 mRNA [4]; Table 60, 15.6 nM, A-431 cells 10,000 cells per well, 48 hours) was 79 % UTC, the “Yap1 mRNA, % UTC” value (Yap1 mRNA [4]; Table 60, 62.5 nM, A-431 cells 10,000 cells per well, 48 hours) was 40 % UTC and the “Yap1 mRNA, % UTC” value (Yap1 mRNA [4]; Table 60, 4000.00 nM, A-431 cells 10,000 cells per well, 48 hours) was 3 % UTC. The IC50 (Yap1 mRNA [4]; Table 60, A-431 cells 10,000 cells per well) was 100 nM, the “Yap1 mRNA, % UTC” value (Yap1 mRNA [4]; Table 61, 15.6 nM, A-431 cells 10,000 cells per well, 48 hours) was 80 % UTC and the “Yap1 mRNA, % UTC” value (Yap1 mRNA [4]; Table 61, 62.5 nM, A-431 cells 10,000 cells per well, 48 hours) was 38 % UTC. The “Yap1 mRNA, % UTC” value (Yap1 mRNA [4]; Table 61, 4000.00 nM, A-431 cells 10,000 cells per well, 48 hours) was 4 % UTC, the IC50 (Yap1 mRNA [4]; Table 61, A-431 cells 10,000 cells per well) was 100 nM and the ALT [5] was 62 U/L. For the same substance, the AST [5] was 70 U/L, the BUN [5] was 16 mg/dL and the TBIL [5] was 0.17 mg/dL. It also gave a Kidney weight [6] of 0.43 g, a Liver weight [6] of 1.56 g and a Spleen weight [6] of 0.12 g. For the same substance, the body weight [6] was 25 g, the ALB [7] was 2.2 g/dL and the ALT [7] was 79 U/L. For the same substance, the AST [7] was 125 U/L, the Kidney weight [8] was 0.64 g and the Liver weight [8] was 2.26 g. For the same substance, the Spleen weight [8] was 0.21 g and the body weight [8] was 40 g.
